Our source for the mutagenic call values is PubChem BioAssay AID1259407 (Chemical Carcinogenesis Research Information System (CCRIS), 2018).

This series deals with CCRIS mutagenicity, Ames/micronucleus/aberration tests. The series can be described thus: CCRIS mutagenicity studies.
Setting [1] is: Test System: AMES SALMONELLA TYPHIMURIUM, Strain/Indicator: TA100, Metabolic Activation: NONE, Method: PREINCUBATION
The mark [2] stands for this setting: Test System: AMES SALMONELLA TYPHIMURIUM, Strain/Indicator: TA102, Metabolic Activation: NONE, Method: STANDARD PLATE.
The mark [3] stands for this setting: Test System: AMES SALMONELLA TYPHIMURIUM, Strain/Indicator: TA98, Metabolic Activation: NONE, Method: STANDARD PLATE.
[4] abbreviates: Test System: AMES SALMONELLA TYPHIMURIUM, Strain/Indicator: TA100, Metabolic Activation: NONE, Method: STANDARD PLATE.

Activity calls are given as the source filed them. The rule behind the calls is not given here.

With `N[C@@H](CCC(=O)N[C@@H](CS)C(=O)NCC(=O)O)C(=O)O`, the mutagenic call runs as follows: (Test System: AMES SALMONELLA TYPHIMURIUM, Strain/Indicator: TA92, Metabolic Activation: RAT, KIDNEY, S-9, Method: PREINCUBATION) “active; positive”; (Test System: AMES SALMONELLA TYPHIMURIUM, Strain/Indicator: TA92, Metabolic Activation: RAT, KIDNEY, S-9, Method: STANDARD PLATE) “active; positive”; (Test System: AMES SALMONELLA TYPHIMURIUM, Strain/Indicator: TA97, Metabolic Activation: RAT, KIDNEY, S-9, Method: PREINCUBATION) “active; positive”; (Test System: AMES SALMONELLA TYPHIMURIUM, Strain/Indicator: TA97, Metabolic Activation: RAT, KIDNEY, S-9, Method: STANDARD PLATE) “active; positive”; under setting [1], “inactive; negative”; (Test System: AMES SALMONELLA TYPHIMURIUM, Strain/Indicator: TA100, Metabolic Activation: RAT, KIDNEY, S-9, Method: PREINCUBATION) “active; positive”. For the same compound, the mutagenic call (Test System: AMES SALMONELLA TYPHIMURIUM, Strain/Indicator: TA100, Metabolic Activation: RAT, KIDNEY, S-9, Method: STANDARD PLATE) is “active; positive”; the mutagenic call (Test System: AMES SALMONELLA TYPHIMURIUM, Strain/Indicator: TA102, Metabolic Activation: NONE, Method: PREINCUBATION) is “inactive; negative”; the mutagenic call under setting [2] was “inactive; negative”; the mutagenic call (Test System: AMES SALMONELLA TYPHIMURIUM, Strain/Indicator: TA102, Metabolic Activation: RAT, KIDNEY, S-9, Method: PREINCUBATION) was “active; positive”; the mutagenic call (Test System: AMES SALMONELLA TYPHIMURIUM, Strain/Indicator: TA104, Metabolic Activation: RAT, KIDNEY, S-9, Method: PREINCUBATION) is “active; positive”; the mutagenic call (Test System: AMES SALMONELLA TYPHIMURIUM, Strain/Indicator: TA104, Metabolic Activation: RAT, KIDNEY, S-9, Method: STANDARD PLATE) was “inactive; negative”. For the same compound, the mutagenic call by setting is: (Test System: AMES SALMONELLA TYPHIMURIUM, Strain/Indicator: TA1535, Metabolic Activation: RAT, KIDNEY, S-9, Method: PREINCUBATION) “inactive; negative”; (Test System: AMES SALMONELLA TYPHIMURIUM, Strain/Indicator: TA1537, Metabolic Activation: RAT, KIDNEY, S-9, Method: PREINCUBATION) “inactive; negative”; (Test System: Mouse lymphoma, Strain/Indicator: L5178Y (tk+/tk-), Metabolic Activation: None, Method: Suspension/plate) “active; equivocal (previous evaluation positive)”; (Test System: Mouse lymphoma, Strain/Indicator: L5178Y (tk+/tk-), Metabolic Activation: Rat, Liver, S-9, Aroclor 1254, Method: Suspension/plate) “inactive; negative”.
Take `Cc1ccc(S(=O)(=O)NN)cc1`: the mutagenic call reads like this: (End Point: IN VITRO CHROMOSOMAL ABERRATIONS, Test System: CHL CELLS, Metabolic Activation: RAT, LIVER, S-9, SODIUM PHENOBARBITAL AND 5,6-BENZOFLAVONE) “active; positive (structural changes)”; (Test System: AMES SALMONELLA TYPHIMURIUM, Strain/Indicator: TA97, Metabolic Activation: NONE, Method: STANDARD PLATE) “inactive; negative”; (Test System: AMES SALMONELLA TYPHIMURIUM, Strain/Indicator: TA97, Metabolic Activation: RAT, LIVER, S-9, AROCLOR 1254, Method: STANDARD PLATE) “inactive; negative”; (Test System: AMES SALMONELLA TYPHIMURIUM, Strain/Indicator: TA98, Metabolic Activation: HAMSTER, LIVER, S-9, AROCLOR 1254, Method: STANDARD PLATE) “inactive; negative”; (Test System: AMES SALMONELLA TYPHIMURIUM, Strain/Indicator: TA98, Metabolic Activation: NONE, Method: PREINCUBATION) “inactive; negative”; under setting [3], “inactive; negative”. Also, the mutagenic call (Test System: AMES SALMONELLA TYPHIMURIUM, Strain/Indicator: TA98, Metabolic Activation: RAT LIVER S-9, PHENOBARBITAL AND BETA-NAPHTHOFLAVONE, Method: PREINCUBATION) is “inactive; negative”; the mutagenic call (Test System: AMES SALMONELLA TYPHIMURIUM, Strain/Indicator: TA98, Metabolic Activation: RAT, LIVER, S-9, AROCLOR 1254, Method: STANDARD PLATE) is “inactive; negative”; the mutagenic call (Test System: AMES SALMONELLA TYPHIMURIUM, Strain/Indicator: TA100, Metabolic Activation: HAMSTER, LIVER, S-9, AROCLOR 1254, Method: STANDARD PLATE) is “active; positive”; the mutagenic call under setting [1] is “active; positive”; the mutagenic call under setting [4] was “active; positive”; the mutagenic call (Test System: AMES SALMONELLA TYPHIMURIUM, Strain/Indicator: TA100, Metabolic Activation: RAT LIVER S-9, PHENOBARBITAL AND BETA-NAPHTHOFLAVONE, Method: PREINCUBATION) is “active; positive”. In addition, the mutagenic call reads like this: (Test System: AMES SALMONELLA TYPHIMURIUM, Strain/Indicator: TA100, Metabolic Activation: RAT, LIVER, S-9, AROCLOR 1254, Method: STANDARD PLATE) “active; positive”; under setting [2], “inactive; negative”; (Test System: AMES SALMONELLA TYPHIMURIUM, Strain/Indicator: TA102, Metabolic Activation: RAT, LIVER, S-9, AROCLOR 1254, Method: STANDARD PLATE) “inactive; negative”; (Test System: AMES SALMONELLA TYPHIMURIUM, Strain/Indicator: TA1535, Metabolic Activation: NONE, Method: PREINCUBATION) “active; positive”; (Test System: AMES SALMONELLA TYPHIMURIUM, Strain/Indicator: TA1535, Metabolic Activation: RAT LIVER S-9, PHENOBARBITAL AND BETA-NAPHTHOFLAVONE, Method: PREINCUBATION) “active; positive”; (Test System: AMES SALMONELLA TYPHIMURIUM, Strain/Indicator: TA1537, Metabolic Activation: NONE, Method: PREINCUBATION) “inactive; negative”. The mutagenic call reads like this: (Test System: AMES SALMONELLA TYPHIMURIUM, Strain/Indicator: TA1537, Metabolic Activation: RAT LIVER S-9, PHENOBARBITAL AND BETA-NAPHTHOFLAVONE, Method: PREINCUBATION) “inactive; negative”; (Test System: AMES SALMONELLA TYPHIMURIUM, Strain/Indicator: TA1538, Metabolic Activation: NONE, Method: PREINCUBATION) “inactive; negative”; (Test System: AMES SALMONELLA TYPHIMURIUM, Strain/Indicator: TA1538, Metabolic Activation: RAT LIVER S-9, PHENOBARBITAL AND BETA-NAPHTHOFLAVONE, Method: PREINCUBATION) “inactive; negative”; (Test System: E.COLI, Strain/Indicator: WP2UVRA, Metabolic Activation: NONE, Method: PREINCUBATION) “active; positive”; (Test System: E.COLI, Strain/Indicator: WP2UVRA, Metabolic Activation: RAT LIVER S-9, PHENOBARBITAL AND BETA-NAPHTHOFLAVONE, Method: PREINCUBATION) “active; positive”; (Test System: MOUSE LYMPHOMA, Strain/Indicator: L5178Y (TK+/TK-), Metabolic Activation: NONE, Method: SUSPENSION/PLATE) “active; positive. reevaluation of results: positive”. Further, the mutagenic call (Test System: MOUSE LYMPHOMA, Strain/Indicator: L5178Y (TK+/TK-), Metabolic Activation: RAT, LIVER, S-9, AROCLOR 1254, Method: SUSPENSION/PLATE) is “active; positive. reevaluation of results: equivocal”.
For `CCOP(=S)(OCC(C)C)SCCl` (stereo not given), the mutagenic call is “inactive; negative” (Test System: AMES SALMONELLA TYPHIMURIUM, Strain/Indicator: TA98, Metabolic Activation: NONE); “inactive; negative” under setting [3]; “inactive; negative” (Test System: AMES SALMONELLA TYPHIMURIUM, Strain/Indicator: TA98, Metabolic Activation: RAT, LIVER, S-9, SODIUM PHENOBARBITAL, Method: STANDARD PLATE); “inactive; negative” (Test System: AMES SALMONELLA TYPHIMURIUM, Strain/Indicator: TA98, Metabolic Activation: S-9); “inactive; negative” (Test System: AMES SALMONELLA TYPHIMURIUM, Strain/Indicator: TA100, Metabolic Activation: NONE); “inactive; negative” under setting [4]. For the same compound, the mutagenic call is, setting by setting: (Test System: AMES SALMONELLA TYPHIMURIUM, Strain/Indicator: TA100, Metabolic Activation: RAT, LIVER, S-9, SODIUM PHENOBARBITAL, Method: STANDARD PLATE) “inactive; negative”; (Test System: AMES SALMONELLA TYPHIMURIUM, Strain/Indicator: TA100, Metabolic Activation: S-9) “inactive; negative”; (Test System: E. COLI, Strain/Indicator: WP2, Metabolic Activation: NONE) “inactive; negative”; (Test System: E. COLI, Strain/Indicator: WP2, Metabolic Activation: RAT, LIVER, S-9, SODIUM PHENOBARBITAL, Method: STANDARD PLATE) “inactive; negative”; (Test System: E. COLI, Strain/Indicator: WP2, Metabolic Activation: S-9) “inactive; negative”; (Test System: E. COLI, Strain/Indicator: WP2 UVRA, Metabolic Activation: NONE) “inactive; negative”. The mutagenic call is, setting by setting: (Test System: E. COLI, Strain/Indicator: WP2 UVRA, Metabolic Activation: RAT, LIVER, S-9, SODIUM PHENOBARBITAL, Method: STANDARD PLATE) “inactive; negative”; (Test System: E. COLI, Strain/Indicator: WP2 UVRA, Metabolic Activation: S-9) “inactive; negative”.
